Here are results for eight compounds from ChEMBL document CHEMBL4840349, “Macrocyclic Diterpenoid Constituents of Euphorbia deflexa, an Endemic Spurge from Greece” (J Nat Prod, 2021).

Active and inactive are the calls of the source. The rule behind the calls is not given here.

One test concerns SK-MEL-28. Description: Cytotoxicity against human SK-MEL-28 cells assessed as cell growth inhibition incubated for 68 hrs by MTT assay. The format is functional, cell-based. The following applies: SK-MEL-28, 68 h.
In a further test the test system is HeLa. The experiment in a line: Cytotoxicity against human HeLa cells assessed as cell growth inhibition incubated for 68 hrs by MTT assay. The format is functional, cell-based.
A further test relates to PC-3. The experiment in a line: Cytotoxicity against human PC-3 cells assessed as cell growth inhibition incubated for 68 hrs by MTT assay. The following applies: PC-3, 68 h. Format: functional, cell-based.
Another test has as its system HepG2. Description: Cytotoxicity against human HepG2 cells assessed as cell growth inhibition incubated for 68 hrs by MTT assay. Format: functional, cell-based. The settings on record: HepG2, 68 h.
The next test deals with Streptococcus pyogenes. Description: Antibacterial activity against Streptococcus pyogenes DSM 20565-0316-001 incubated for 20 hrs by MTT based double dilution method. Format: functional, organism-based.
For a further test, the system named is Staphylococcus aureus. Description: Antibacterial activity against Staphylococcus aureus DSM 20231 incubated for 20 hrs by MTT based double dilution method. Format: functional, organism-based.

For `C/C=C(/C)C(=O)O[C@H]1C(C)=C[C@]23C(=O)[C@@H](C=C(C)[C@@H](O)[C@]12O)[C@H]1[C@@H](C[C@H]3C)C1(C)C`, the IC50 in the test with SK-MEL-28, with HeLa, in the test on PC-3 and in the test with HepG2 was more than 10 µM each time.

As to `C=C1C(=O)O[C@@H]2C3O[C@]3(C)CC/C=C(\C)CC[C@@H]12` (some centres not stated), the IC50 in the test with SK-MEL-28 was 4.9 µM; with HeLa, 2.1 µM; in the test on PC-3 it was more than 10 µM; in the test with HepG2, 5.6 µM.

For the compound `CC(=O)OC[C@@]12Cc3c(ccc(C)c3O)[C@]1(C)[C@@H](OC(C)=O)[C@@]1(O)C[C@@](C)(OC(C)=O)[C@H](OC(=O)c3ccccc3)[C@@H]1[C@H]2OC(C)=O`, the half-maximal inhibitory concentration (IC50) in the test on SK-MEL-28 and in the test with HeLa was more than 10 µM in each case.

Take `CC(=O)OC[C@@]12Cc3c(ccc(C)c3O)[C@]1(C)[C@@H](OC(C)=O)[C@]1(O)[C@H]([C@@H](OC(=O)c3ccccc3)[C@@H](C)[C@H]1OC(C)=O)[C@H]2OC(C)=O`: the half-inhibitory concentration (IC50) is more than 10 µM in the test with SK-MEL-28 and more than 5.8 µM with HeLa.

As for `CC(=O)OCC(=O)O[C@@H]1[C@H]2[C@@H](OC(=O)c3ccccc3)[C@@H](C)C[C@]2(O)[C@H](O)[C@]2(O)[C@H](OC(C)=O)[C@@]1(OC(C)=O)C[C@H]1C(=O)C(C)(C)C[C@@H]12`, the IC50 in the test with SK-MEL-28, with HeLa, with PC-3 and in the test with HepG2 was more than 10 µM throughout.

Regarding `C/C=C(/C)C(=O)OC[C@@]1(C)[C@H]2[C@@H]3C=C(C)[C@@H](O)[C@]4(O)[C@@H](OC(=O)/C(C)=C\C)C(C)=C[C@@]4(C3=O)[C@H](C)C[C@]21OC(C)=O`, the half-maximal inhibitory concentration (IC50) is more than 10 µM in the test with SK-MEL-28 and 9.8 µM in the test with HeLa. Also, the result in the test on Streptococcus pyogenes and in the test with Staphylococcus aureus was inactive.

In the case of `C/C=C(/C)C(=O)O[C@@H]1C2[C@@H](OC(=O)c3ccccc3)[C@@H](C)C[C@]2(O)C(=O)[C@@](C)(O)[C@H]2CC(C)(C)C(=O)[C@]2(O)[C@H]2O[C@@]12COC(C)=O` (some centres not stated), the half-inhibitory concentration (IC50) in the test on SK-MEL-28, in the test with HeLa, in the test on PC-3 and with HepG2 was more than 10 µM throughout. Further, the outcome with Streptococcus pyogenes and in the test with Staphylococcus aureus was inactive.

As to `C=C1[C@H](O)[C@H]2[C@@H](OC(=O)c3ccccc3)[C@](C)(OC(C)=O)[C@@H](OC(=O)c3ccccc3)[C@]2(O)[C@@H](O)[C@@H](C)/C=C/C(C)(C)[C@H](O)[C@H](OC(C)=O)[C@H]1OC(C)=O`, the concentration for half-maximal inhibition (IC50) in the test on SK-MEL-28 is more than 10 µM; in the test with HeLa, 9.9 µM; in the test on PC-3, more than 10 µM; in the test on HepG2, more than 10 µM. Also, the outcome with Streptococcus pyogenes and in the test with Staphylococcus aureus was inactive.
